Measured values taken from patent US20220397566A1, “GAMMA-SECRETASE STABILIZING COMPOUND SCREENING ASSAY” (VIB VZW, priority 2019, published 2022).

Key:
Assay type in all cases: cell-based, mouse
[1] = test system: LAMP1-positive organelles; test: Size area of LAMP1-positive organelles per cell; conditions: 1 μM, 16 hrs
Method: FIG. 1. DAPT relocates PSEN1/g-secretase to late endosomes. (A) PSEN1 and PSEN2 double knock-out (dKO) MEFs stably expressing GFP-PSEN1 or GFP-PSEN2 were treated for 16 h with 1 μM of DAPT or DMSO and immunostained for GFP (green) and LAMP1 antibodies (red). (B) Quantification of (A) using Mander's coefficient. (C) Ratio of GFP intensity in LAMP1-positive structures over total GFP intensity in the cell, normalized to DMSO-treated cells (control=Ctrl). (D) Quantification of size area of LAMP1-positive organelles per cell showing no significant differences between DMSO and DAPT-treated cells. (E) PSEN1, PSEN2 and NCT triple KO MEFs stably rescued with NCT-SNAP and GFP-PSEN1 were treated for 16 h with 1 μM of DAPT or DMSO (Ctrl). […] All graphs show the median with 95% confidence interval (n=3, ˜20 cells per experiments; p-values are calculated using Mann-Whitney test; ns means non-significant).
Cells were plated on glass coverslips, transfected 24 h later and processed for indirect immunolabeling the next day (Sannerud et al 2011 Proc Natl Acad Sci USA 108). […] ImageJ software with the plugin JACoP (Bolte and Cordelieres 2006 J Microsc 224) was used for signal overlap quantification (Mander's coefficient). Images were acquired with identical settings and regions of interest (ROI) covering whole cells were used for quantification.

NCT = test: Cell surface biotinylation internalization assay, NCT; conditions: DAPT 1 μM
Method: (§1) All reagents, except otherwise stated, were kept on ice. Cells (450.000 cells for 1 h kinetic and 300.000 cells for 16 h) were plated on 6-cm dishes. 48 h after plating, cells were placed on ice, washed in PBS (pH 8) and next incubated in PBS (pH 8) supplemented with 0.25 mg/ml sulfo-NHS-SS-Biotin (Pierce) (10 min at 4° C.). Excess of biotin was washed out with PBS and cells were incubated in quench buffer (0.5% BSA, 100 mM Glycine in PBS) for 15 min at 4° C. Cells were then washed with PBS and incubated at 37° C. in complete pre-warmed medium (with or without DAPT 1 μM) for the appropriate time or kept at 4° C. as a control. Endocytosis was quickly stopped by placing the dishes back on ice and washing the cells with ice-cold PBS. Remaining biotin at the cell surface was cleaved off by incubating the cells twice in PBS containing 100 mM 2-sodium-2-mercaptoethanesulfonate (Sigma) as a reducing agent (15 min at 4° C.). […] Total protein was measured and biotinylated proteins were pulled down from equal amounts of extracts using streptavidin Sepharose beads (Pierce) (4° C., overnight on a rotation wheel). […] To evaluate the internalized pool for each protein to total cell surface, the (R37-R0)/NR*100 ratio for each time point were quantified. For the 16 h time point, the R37/NR*100 were quantified for each condition. […]

transferrin receptor = test: Cell surface biotinylation internalization assay, transferrin receptor; conditions: 16 h time point, DAPT 1 μM
Method: as §1

g-secretase subunits = molecular target: T1, g-secretase subunits (Homo sapiens, UniProt P49768); test: Expression of g-secretase subunits (Western blot); conditions: 1 μM DAPT; data not shown
T1 construct: expressed in transfected cells
Method: First, in the PSEN1 KO mouse embryonic fibroblasts (MEFs) rescued with EGFP-PSEN1 (see Example 1) the expression of the g-secretase subunits was tested and found not affected by administering any of the 12 compounds, including DAPT that was used as positive control (data not shown).
(§2) Protein concentrations were determined by the Bio-Rad DC protein assay (Bio-Rad). Samples were separated by SDS-PAGE (4-12% Bis-Tris NuPAGE gels in MES running buffer (ThermoFisher Scientific) and transferred onto nitrocellulose membranes (ThermoFisher Scientific). After blocking in 5% non-fat milk, membranes were incubated with primary antibody (4° C., overnight) followed by washing and incubation with horseradish peroxidase (HRP)-conjugated secondary antibodies (1 h, room temperature). After final washing, immunodetection was done using enhanced chemiluminescence (Western Lightning-Plus ECL, PerkinElmer), and immunoreactive protein bands were digitally captured and quantified on a Fuji MiniLAS 3000 imager (Fuji, Dusseldorf, Germany) using Aida Image Analyzer software (Raytest, Germany). Data are represented as mean±SEM of at least three independent experiments.

g-secretase complex = molecular target: T2, g-secretase complex (Homo sapiens, UniProt P49768); test: Cadherin CTF and APP CTF accumulation (Western blot); conditions: FIG. 7 Western blot
T2 construct: expressed in transfected cells
Method: Second, of all these compounds, the inhibitory action on g-secretase activity was determined by quantifying the production of the C-terminal fragments (CTF) of Cadherin and APP. Both Cadherin-CTF and APP-CTF accumulate when the enzymatic activity of the g-secretase complex is inhibited. As can be appreciated from the Western blot in FIG. 7, all tested g-secretase inhibitors (C1, C2, C4 and C8) induced the level of Cadherin CTF and APP CTF in contrast to the negative control and the g-secretase stabilizers.
as §2

C[C@H](NC(=O)Cc1cc(F)cc(F)c1)C(=O)N[C@H](C(=O)OC(C)(C)C)c1ccccc1 [DAPT, N—[N-(3,5-difluorophenacetyl)-L-alanyl]-S-phenylglycine t-butyl ester] was tested, and the “total size area of LAMP1-positive organelles” value [1] was “no measurable effect”, the “internalized NCT (internalization kinetics)” value (NCT; 5, 10, 30 and 60 min) was “did not reveal significant differences in internalized NCT” and the “amount of biotinylated NCT pulled down” value (NCT; 16 h time point) was “doubling of the amount of biotinylated NCT”. The “biotinylated transferrin receptor pulled down” value (transferrin receptor) was “no differences were found”, the “steady state of PSEN1 or PSEN2 protein levels” value (g-secretase subunits) was “no measurable effect” and the “level of APP CTF” value (g-secretase complex) was “accumulate”. The “level of Cadherin CTF” value (g-secretase complex) was “accumulate”.
